Measured values taken from patent publication US6514989B1, “Aromatic and heteroaromatic substituted 1,2,4-triazolo pyridine derivatives” (Hoffmann-La Roche Inc., priority 2001, dated 2003).

Assays:
[1] = target: T1, human adenosine A2a receptor (Homo sapiens, UniProt P29274); test: Human adenosine A2a receptor radioligand binding assay ([125I]-AB-MECA, CHO cell membranes); settings: for Selectivity A1/A2a: ratio obtained by dividing KiHA1 by KiHA2A; for Ki: recombinant human A2a receptor expressed in CHO cells, Ki from IC50 by Cheng-Prussoff equation, read-out: hA2a Ki
T1 construct: expressed in transfected cells; host or cells: CHO cells, semliki forest virus expression system; membrane preparation
T1 sequence (P29274 whole entry): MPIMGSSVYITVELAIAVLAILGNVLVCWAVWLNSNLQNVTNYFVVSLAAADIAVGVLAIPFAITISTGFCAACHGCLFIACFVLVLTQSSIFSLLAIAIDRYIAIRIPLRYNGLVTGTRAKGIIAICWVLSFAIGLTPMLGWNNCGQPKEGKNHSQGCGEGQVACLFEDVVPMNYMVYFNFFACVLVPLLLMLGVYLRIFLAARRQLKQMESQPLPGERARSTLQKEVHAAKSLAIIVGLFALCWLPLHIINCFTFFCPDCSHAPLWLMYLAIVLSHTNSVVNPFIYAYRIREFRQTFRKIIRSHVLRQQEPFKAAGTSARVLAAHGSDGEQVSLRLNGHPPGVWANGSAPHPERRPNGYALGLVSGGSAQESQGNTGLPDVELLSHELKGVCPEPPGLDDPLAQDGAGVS
Procedure: Human Adenosine A2a Receptor
The gene encoding human adenosine A2a receptor was recombinantly introduced and expressed in chinese hamster ovary (CHO) cells using the semliki forest virus expression system. Cells were harvested, washed twice by centrifugation, homogenized and again washed by centrifugation. The final washed membrane pellet was suspended in a Tris (50 mM) buffer containing 120 mM NaCl, 5 mM KCl, 2 mM CaCl2 and 10 mM MgCl2 (pH 7.4) (buffer A). The [^125I]-AB-MECA ([N(6)-(4-amino-3-iodobenzyl)-5′-N-methylcarbamoyl-adenosine]; 0.05 nM) binding assay was carried out in 96-well a plates in the presence of 20 μg of membrane protein and 0.1 U adenosine deaminase in a final volume of […] of buffer A. Non-specific binding was defined using xanthine amine congener (XAC; 2 μM). Compounds were tested at 10 concentrations from 10 μM-0.3 nM. All assays were conducted in duplicate and repeated at least two times. Assay plates were incubated for 1 hour at room temperature before filtration through Whatman Unifilter GF/C 96-well filter plates (preincubated with 0.3% polyethyleneimine). Filters were washed 3 times with 0.3 ml of cold (4° C.) Tris (50 mM)—NaC […]
[…] 1 (120 mM) buffer (pH 7.4). Microscint 40 scintillation fluid (50 μl) was added to each well and the wells sealed. After gentle shaking for 20 min, plates were counted on a Packard Topcount scintillation counter. IC50 values were calculated using a non-linear curve fitting program and Ki values calculated using the Cheng-Prussoff equation.
(§1) In accordance with the invention, it has been shown that compounds of formula I have a high affinity toward the A2A receptor. In Table I below specific values of prepared compounds are described, Values of KiHA2A and KiHA1 are shown in Table I for compounds of formula 1. A low Ki value is indicative of a particular compound's high affinity toward a particular receptor and conversely a higher Ki value is indicative of a lower affinity for that compound toward a particular receptor. […] Generally speaking, compounds that have a higher HA1/HA2A ratio are able to give a substantially complete blockade of the HA2A receptor without substantially affecting the A1 receptor.

[2] = target: T2, human adenosine A1 receptor (Homo sapiens, UniProt P30542); test: Human adenosine A1 receptor radioligand binding assay ([3H]-DPCPX, SPA, CHO cell membranes); settings: recombinant human A1 receptor expressed in CHO cells; [3H]-DPCPX 0.6 nM; Ki from IC50 by Cheng-Prussoff equation; read-out: hA1 Ki
T2 construct: expressed in transfected cells; host or cells: CHO cells, semliki forest virus expression system; membrane preparation
T2 sequence (P30542 1-326): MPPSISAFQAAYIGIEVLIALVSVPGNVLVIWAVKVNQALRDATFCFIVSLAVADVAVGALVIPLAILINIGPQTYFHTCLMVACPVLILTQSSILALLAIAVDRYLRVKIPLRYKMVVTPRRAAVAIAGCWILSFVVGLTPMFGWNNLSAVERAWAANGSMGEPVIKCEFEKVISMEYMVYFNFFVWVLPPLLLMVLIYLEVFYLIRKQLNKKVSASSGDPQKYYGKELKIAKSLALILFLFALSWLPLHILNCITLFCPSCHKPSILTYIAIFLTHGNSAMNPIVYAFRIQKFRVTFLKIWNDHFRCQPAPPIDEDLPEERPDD
Procedure: Human Adenosine A^1 Receptor
The gene encoding human adenosinie A1 receptor was recombinantly introduced and expressed in chinese hamster ovary (CHO) cells using the semliki forest virus expression system. Cells were harvested, washed twice by centrifugation, homogenized and again washed by centrifugation. The final washed membrane pellet was suspended in a Tris (50 mM) buffer containing 120 mM NaCl, 5 mM KCl, 2 mM CaCl2 and 10 mM MgCl2 (pH 7.4) (buffer A). The [^3H]-DPCPX (([propyl-3H]8-cyclopentyl-1,3-dipropyxanthine); 0.6 nM) binding assay was carried out in 96-well plates in the presence of 2.5 μg of membrane protein, 0.5 mg of Ysi-poly-1-lysine SPA beads and 0.1 U adenosine deaminase in a final volume of 200 μl of buffer A. Non-specific binding was defined using xanthine amine congener (XAC; 2 μM). Compounds were tested at 10 concentrations from 10 μM-0.3 nM. All assays were conducted in duplicate and repeated at least two times. Assay plates were incubated for 1 hour at room temperature before centrifugation and then bound ligand determined using a Packard Topcount scintillation counter. IC50 values were calculated using a non-linear curve fitting program and Ki values calculated using the Cheng-Prussoff equation.
as §1

| Molecule | Selectivity A1/A2a [1] | Ki [1] | Ki [2] |
| --- | --- | --- | --- |
| COc1ccc(-c2cccc(C(F)(F)F)c2)n2nc(NC(=O)c3ccc(C)s3)nc12 [Example 40, 5-Methyl-thiophene-2-carboxylic acid [8-methoxy-5-(3-trifluoromethyl-phenyl)-[1,2,4]triazolo[1,5-a]pyridin-2-yl]-amide] |  | 547 nM |  |
| CCOC(=O)c1cccc(-c2ccc(OC)c3nc(NC(=O)c4ccc(F)cc4)nn23)c1 [Example 51, 3-[2-(4-Fluoro-benzoylamino)-8-methoxy-[1,2,4]triazolo[1,5-a]pyridin-5-yl]-benzoic acid ethyl ester] |  | 480 nM |  |
| CCOc1cccc(-c2ccc(OC)c3nc(NC(=O)c4ccc(C)s4)nn23)c1 [Example 30, 5-Methyl-thiophene-2-carboxylic acid [5-(3-ethoxy-phenyl)-8-methoxy-[1,2,4]triazolo[1,5-a]pyridin-2-yl]-amide] | 18.6 | 72.9 nM | 1360 nM |
| COc1ccc(-c2ccc3[nH]ccc3c2)n2nc(NC(=O)c3ccc(C)s3)nc12 [Example 45, 5-Methyl-thiophene-2-carboxylic acid [5-(1H-indol-5-yl)-8-methoxy-[1,2,4]triazolo[1,5-a]pyridin-2-yl]-amide] |  | 852 nM |  |
| COc1ccc(-c2ccccc2C)n2nc(NC(=O)c3ccc(C)s3)nc12 [Example 37, 5-Methyl-thiophene-2-carboxylic acid (8-methoxy-5-o-tolyl-[1,2,4]triazolo[1,5-a]pyridin-2-yl)-amide] |  | 938 nM |  |
| COc1ccc(-c2ccc(C)cc2)n2nc(NC(=O)c3ccc(C)s3)nc12 [Example 39, 5-Methyl-thiophene-2-carboxylic acid (8-methoxy-5-p-tolyl-[1,2,4]triazolo[1,5-a]pyridin-2-yl)-amide] |  | 451 nM |  |
| CCOC(=O)c1cccc(-c2ccc(OC)c3nc(NC(=O)c4ccc(C)s4)nn23)c1 [Example 46, 3-{8-Methoxy-2-[(5-methyl-thiophene-2-carbonyl)-amino]-[1,2,4]triazolo[1,5-a]pyridin-5-yl}-benzoic acid ethyl ester] |  | 332 nM |  |
| 5-Methyl-thiophene-2-carboxylic acid[8-methoxy-5-(4-vinyl-phenyl)-[1,2,4]triazolo[1,5-a]pyridin-2-yl]-amide [Example 44] |  | 246 nM |  |
| COc1ccc(-c2ccc(SC)cc2)n2nc(NC(=O)c3ccc(C)s3)nc12 [Example 42, 5-Methyl-thiophene-2-carboxylic acid [8-methoxy-5-(4-methylsulfanyl-phenyl)-[1,2,4]triazolo[1,5-a]pyridin-2-yl]-amide] |  | 287 nM |  |
| COc1ccc(-c2ccccc2)n2nc(NC(=O)c3ccccc3Br)nc12 [Example 22, 2-Bromo-N-(8-methoxy-5-phenyl-[1,2,4]triazolo[1,5-a]pyridin-2-yl)-benzamide] |  | 266 nM |  |
| COc1ccc(-c2cccc(C)c2)n2nc(NC(=O)c3ccc(C)s3)nc12 [Example 38, 5-Methyl-thiophene-2-carboxylic acid (8-methoxy-5-m-tolyl [1,2,4]triazolo[1,5-a]pyridin-2-yl)-amide] |  | 277 nM |  |
| COc1ccc(-c2cccc(C(C)=O)c2)n2nc(NC(=O)c3ccc(C)s3)nc12 [Example 43, 5-Methyl-thiophene-2-carboxylic acid [5-(3-acetyl-phenyl)-8-methoxy-[1,2,4]triazolo[1,5-a]pyridin-2-yl]-amide] |  | 618 nM |  |

Continued by falling Ki [1], values first:

| Selectivity A1/A2a [1] | Ki [1] | Ki [2] | Molecule |
| --- | --- | --- | --- |
|  | 855 nM |  | COc1ccc(-c2ccc(SC)cc2)n2nc(NC(=O)c3ccc(F)cc3)nc12 [Example 50, 4-Fluoro-N-[8-methoxy-5-(4-methylsulfanyl-phenyl)-[1,2,4]triazolo[1,5-a]pyridin-2-yl]-benzamide] |
|  | 624 nM |  | COc1ccc(-c2ccc(Cl)cc2)n2nc(NC(=O)c3ccc(F)cc3)nc12 [Example 48, N-[5-(4-Chloro-phenyl)-8-methoxy-[1,2,4]triazolo[1,5-a]pyridin-2-yl]-4-fluoro-benzamide] |
|  | 527 nM |  | COc1ccc(-c2ccccc2Cl)n2nc(NC(=O)c3ccc(C)s3)nc12 [Example 36, 5-Methyl-thiophene-2-carboxylic acid [5-(2-chloro-phenyl)-8-methoxy-[1,2,4]triazolo[1,5-a]pyridin-2-yl]-amide] |
|  | 384 nM |  | COc1ccc(-c2ccccc2)n2nc(NC(=O)c3ccccc3F)nc12 [Example 21, 2-Fluoro-N-(8-methoxy-5-phenyl-[1,2,4]triazolo[1,5-a]pyridin-2-yl)-benzamide] |
|  | 346 nM |  | COc1ccc(-c2ccc(OC)c3nc(NC(=O)c4ccc(F)cc4)nn23)cc1 [Example 49, 4-Fluoro-N-[8-methoxy-5-(4-methoxy-phenyl)-[1,2,4]triazolo[1,5-a]pyridin-2-yl]-benzamide] |
|  | 269 nM |  | COc1ccc(-c2cccc(Cl)c2)n2nc(NC(=O)c3ccc(F)cc3)nc12 [Example 47, N-[5-(3-Chloro-phenyl)-8-methoxy-[1,2,4]triazolo[1,5-a]pyridin-2-yl]-4-fluoro-benzamide] |
|  | 254 nM |  | COc1ccc(-c2cccc(NC(C)=O)c2)n2nc(NC(=O)c3ccc(C)s3)nc12 [Example 41, 5-Methyl-thiophene-2-carboxylic acid [5-(3-acetylamino-phenyl)-8-methoxy-[1,2,4]triazolo[1,5-a]pyridin-2-yl]-amide] |
| 24.6 | 229 nM | 5640 nM | COc1ccc(-c2ccccc2F)n2nc(NC(=O)c3ccc(F)cc3)nc12 [Example 32, 4-Fluoro-N-[5-(2-fluorophenyl)-8-methoxy-[1,2,4]triazolo[1,5-a]pyridin-2-yl]-benzamide] |
| 12.7 | 165 nM | 2090 nM | COc1ccc(-c2cccc(Cl)c2)n2nc(NC(=O)c3ccc(C)s3)nc12 [Example 25, 5-Methyl-thiophene-2-carboxylic acid [5-(3-chloro-phenyl)-8-methoxy-[1,2,4]triazolo[1,5-a]pyridin-2-yl]-amide] |
| 25.6 | 114 nM | 2910 nM | COc1ccc(-c2cccs2)n2nc(NC(=O)c3ccc(Cl)cc3)nc12 [Example 15, 4-Chloro-N-(8-methoxy-5-thiophen-2-yl-[1,2,4]triazolo[1,5-a]pyridin-2-yl)-benzamide] |
| 19.3 | 112 nM | 2150 nM | COc1ccc(-c2cccs2)n2nc(NC(=O)c3ccccc3)nc12 [Example 12, N-(8-Methoxy-5-thiophen-2-yl-[1,2,4]triazolo[1,5-a]pyridin-2-yl)-benzamide] |
| 39.6 | 29.5 nM | 1170 nM | COc1ccc(-c2ccc(Cl)s2)n2nc(NC(=O)c3ccc(C)s3)nc12 [Example 31, 5-Methyl-thiophene-2-carboxylic acid [5-(5-chloro-thiophen-2-yl)-8-methoxy-[1,2,4]triazolo[1,5-a]pyridin-2-yl]-amide] |
